pIC50: −log10 of the molar value. “And” between values parts separate entries of the source, which are not always exact repeats. Equal entries are not always repeated. Each block holds one compound with its values, some of them ahead of it.
System: PANC-1 complex spheroid growth, percent test/control
Assay: Anticancer human tumor PANC-1 cell line growth inhibition [Asc];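 note: spheroids exposed to agents for 7 days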;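 for viability, T/C: percent viability relative to DMSO vehicle wells taken as 100%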
Conditions: for viability, T/C: stronger effect = lower value
Summary of the method: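 Complex spheroids combining tumor cells with HUVEC endothelial cells and human MSCs, at 37 degrees C, 5% CO2; agents tested alone or combined, half-log dilutions from at or near clinical Cmax, or 10 microM if Cmax unknown.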

[1] = curve of first compound, second compound 0.00316 µM
[2] = curve of first compound, second compound 0.01 µM
[3] = curve of first compound, second compound 0.0316 µM
[4] = curve of first compound, second compound 0.1 µM
[5] = curve of first compound, second compound 0.316 µM
[6] = curve of first compound, second compound 1 µM
[7] = second compound 0.00316 µM, first compound 0.00316 µM
[8] = second compound 0.00316 µM, first compound 0.01 µM
[9] = second compound 0.00316 µM, first compound 0.0316 µM
[10] = second compound 0.00316 µM, first compound 0.1 µM
[11] = second compound 0.01 µM, first compound 0.00316 µM
[12] = second compound 0.01 µM, first compound 0.01 µM
[13] = second compound 0.01 µM, first compound 0.0316 µM
[14] = second compound 0.01 µM, first compound 0.1 µM
[15] = second compound 0.0316 µM, first compound 0.00316 µM
[16] = second compound 0.0316 µM, first compound 0.01 µM
[17] = second compound 0.0316 µM, first compound 0.0316 µM
[18] = second compound 0.0316 µM, first compound 0.1 µM
[19] = second compound 0.1 µM, first compound 0.00316 µM
[20] = second compound 0.1 µM, first compound 0.01 µM
[21] = second compound 0.1 µM, first compound 0.0316 µM
[22] = second compound 0.1 µM, first compound 0.1 µM
[23] = second compound 0.316 µM, first compound 0.00316 µM
[24] = second compound 0.316 µM, first compound 0.01 µM
[25] = second compound 0.316 µM, first compound 0.0316 µM
[26] = second compound 0.316 µM, first compound 0.1 µM
[27] = second compound 1 µM, first compound 0.00316 µM
[28] = second compound 1 µM, first compound 0.01 µM
[29] = second compound 1 µM, first compound 0.0316 µM
[30] = second compound 1 µM, first compound 0.1 µM
[31] = second compound 0.0316 µM, first compound 0.000316 µM
[32] = second compound 0.0316 µM, first compound 0.001 µM
[33] = second compound 0.1 µM, first compound 0.000316 µM
[34] = second compound 0.1 µM, first compound 0.001 µM
[35] = second compound 0.316 µM, first compound 0.000316 µM
[36] = second compound 0.316 µM, first compound 0.001 µM
[37] = second compound 1 µM, first compound 0.000316 µM
[38] = second compound 1 µM, first compound 0.001 µM

pIC50 (curve of compound): < 7.00
SMILES: Cn1ncnc1[C@H]1c2n[nH]c(=O)c3cc(F)cc(c23)N[C@@H]1c1ccc(F)cc1
viability, T/C (compound 0.000316 µM): 97.2% and 109% and 94.1%
viability, T/C (compound 0.001 µM): 104% and 101% and 106%
viability, T/C (compound 0.00316 µM): 99.2% and 110% and 107%
viability, T/C (compound 0.01 µM): 98.5% and 105% and 109%
viability, T/C (compound 0.0316 µM): 109% and 105% and 108%
viability, T/C (compound 0.1 µM): 109% and 105% and 115%

pIC50 [1]: < 7.00
pIC50 [2]: < 7.00
pIC50 [3]: < 7.00
pIC50 [4]: < 7.00
pIC50 [5]: < 7.00
pIC50 [6]: < 7.00
SMILES: Cn1ncnc1[C@H]1c2n[nH]c(=O)c3cc(F)cc(c23)N[C@@H]1c1ccc(F)cc1 + CNC(C)C(=O)NC1CN(S(=O)(=O)c2cccc(S(=O)(=O)N3CCC4CCC(C(=O)NC(c5ccccc5)c5ccccc5)N4C(=O)C(NC(=O)C(C)NC)C3)c2)CCC2CCC(C(=O)NC(c3ccccc3)c3ccccc3)N2C1=O
viability, T/C (second compound 0.00316 µM, first compound 0.000316 µM): 110%
viability, T/C (second compound 0.00316 µM, first compound 0.001 µM): 117%
viability, T/C [7]: 128%
viability, T/C [8]: 114%
viability, T/C [9]: 113%
viability, T/C [10]: 109%
viability, T/C (second compound 0.01 µM, first compound 0.000316 µM): 105%
viability, T/C (second compound 0.01 µM, first compound 0.001 µM): 108%
viability, T/C [11]: 99.6%
viability, T/C [12]: 117%
viability, T/C [13]: 110%
viability, T/C [14]: 111%
viability, T/C [31]: 96.8%
viability, T/C [32]: 92.8%
viability, T/C [15]: 96.6%
viability, T/C [16]: 109%
viability, T/C [17]: 108%
viability, T/C [18]: 113%
viability, T/C [33]: 94.3%
viability, T/C [34]: 102%
viability, T/C [19]: 97.3%
viability, T/C [20]: 101%
viability, T/C [21]: 109%
viability, T/C [22]: 115%
viability, T/C [35]: 109%
viability, T/C [36]: 98.4%
viability, T/C [23]: 97.5%
viability, T/C [24]: 99.6%
viability, T/C [25]: 111%
viability, T/C [26]: 102%
viability, T/C [37]: 87.3%
viability, T/C [38]: 107%
viability, T/C [27]: 111%
viability, T/C [28]: 99%
viability, T/C [29]: 95.5%
viability, T/C [30]: 102%

The remaining lines, values behind:

SMILES: CCN1CCN(Cc2ccc(Nc3ncc(F)c(-c4cc(F)c5nc(C)n(C(C)C)c5c4)n3)nc2)CC1 + CNC(C)C(=O)NC1CN(S(=O)(=O)c2cccc(S(=O)(=O)N3CCC4CCC(C(=O)NC(c5ccccc5)c5ccccc5)N4C(=O)C(NC(=O)C(C)NC)C3)c2)CCC2CCC(C(=O)NC(c3ccccc3)c3ccccc3)N2C1=O
pIC50 [1]: < 6.00
pIC50 [2]: < 6.00
pIC50 [3]: < 6.00
pIC50 [4]: < 6.00
pIC50 [5]: < 6.00
pIC50 [6]: < 6.00
viability, T/C [7]: 119%
viability, T/C [8]: 108%
viability, T/C [9]: 105%
viability, T/C [10]: 117%
viability, T/C (second compound 0.00316 µM, first compound 0.316 µM): 129%
viability, T/C (second compound 0.00316 µM, first compound 1 µM): 143%
viability, T/C [11]: 95.1%
viability, T/C [12]: 96.8%
viability, T/C [13]: 108%
viability, T/C [14]: 116%
viability, T/C (second compound 0.01 µM, first compound 0.316 µM): 124%
viability, T/C (second compound 0.01 µM, first compound 1 µM): 127%
viability, T/C [15]: 96%
viability, T/C [16]: 101%
viability, T/C [17]: 107%
viability, T/C [18]: 112%
viability, T/C (second compound 0.0316 µM, first compound 0.316 µM): 116%
viability, T/C (second compound 0.0316 µM, first compound 1 µM): 136%
viability, T/C [19]: 102%
viability, T/C [20]: 102%
viability, T/C [21]: 102%
viability, T/C [22]: 97.4%
viability, T/C (second compound 0.1 µM, first compound 0.316 µM): 107%
viability, T/C (second compound 0.1 µM, first compound 1 µM): 118%
viability, T/C [23]: 92.2%
viability, T/C [24]: 91.8%
viability, T/C [25]: 109%
viability, T/C [26]: 105%
viability, T/C (second compound 0.316 µM, first compound 0.316 µM): 118%
viability, T/C (second compound 0.316 µM, first compound 1 µM): 129%
viability, T/C [27]: 98.2%
viability, T/C [28]: 98.2%
viability, T/C [29]: 99.5%
viability, T/C [30]: 96.5%
viability, T/C (second compound 1 µM, first compound 0.316 µM): 109%
viability, T/C (second compound 1 µM, first compound 1 µM): 113%

SMILES: O=C(c1ccc(F)c(F)c1Nc1ccc(I)cc1F)N1CC(O)([C@@H]2CCCCN2)C1
viability, T/C (compound 0.00316 µM): 94.2% and 92.8% and 95.9%
viability, T/C (compound 0.01 µM): 90.2% and 82.4% and 91.8%
viability, T/C (compound 0.0316 µM): 87.9% and 89.5% and 101%
viability, T/C (compound 0.1 µM): 85.8% and 91.7% and 97.6%
viability, T/C (compound 0.316 µM): 87.8% and 89.1% and 96.5%
viability, T/C (compound 1 µM): 92.6% and 92.3% and 102%
pIC50 (curve of compound): < 6.00

SMILES: NC1CCC(NC2CC2c2ccccc2)CC1 (stereo not given) + Cc1c(S(C)(=O)=O)c(-c2cc(F)cc(N3CCN(c4ccc(NS(=O)(=O)c5ccc(NC(CCN6CCC(C(=O)OCCCP(=O)(O)O)CC6)CSc6ccccc6)c(S(=O)(=O)C(F)(F)F)c5)cc4)CC3)c2)c(-c2ccc(Cl)cc2)n1C(C)C
pIC50 [3]: < 7.00
pIC50 [4]: < 7.00
pIC50 [5]: < 7.00
pIC50 [6]: < 7.00
pIC50 (curve of first compound, second compound 3.16 µM): < 7.00
pIC50 (curve of first compound, second compound 10 µM): < 7.00
viability, T/C [31]: 109%
viability, T/C [32]: 101%
viability, T/C [15]: 98.1%
viability, T/C [16]: 91.4%
viability, T/C [17]: 95.1%
viability, T/C [18]: 100%
viability, T/C [33]: 109%
viability, T/C [34]: 98.3%
viability, T/C [19]: 101%
viability, T/C [20]: 107%
viability, T/C [21]: 98%
viability, T/C [22]: 115%
viability, T/C [35]: 108%
viability, T/C [36]: 97.1%
viability, T/C [23]: 97.5%
viability, T/C [24]: 98.5%
viability, T/C [25]: 110%
viability, T/C [26]: 105%
viability, T/C [37]: 104%
viability, T/C [38]: 109%
viability, T/C [27]: 121%
viability, T/C [28]: 92%
viability, T/C [29]: 112%
viability, T/C [30]: 107%
viability, T/C (second compound 3.16 µM, first compound 0.000316 µM): 114%
viability, T/C (second compound 3.16 µM, first compound 0.001 µM): 110%
viability, T/C (second compound 3.16 µM, first compound 0.00316 µM): 102%
viability, T/C (second compound 3.16 µM, first compound 0.01 µM): 108%
viability, T/C (second compound 3.16 µM, first compound 0.0316 µM): 109%
viability, T/C (second compound 3.16 µM, first compound 0.1 µM): 110%
viability, T/C (second compound 10 µM, first compound 0.000316 µM): 168%
viability, T/C (second compound 10 µM, first compound 0.001 µM): 206%
viability, T/C (second compound 10 µM, first compound 0.00316 µM): 176%
viability, T/C (second compound 10 µM, first compound 0.01 µM): 177%
viability, T/C (second compound 10 µM, first compound 0.0316 µM): 174%
viability, T/C (second compound 10 µM, first compound 0.1 µM): 168%
